Assay results: patent US11266643B2, “Triaryl compounds for treatment of PD-L1 diseases” (CHEMOCENTRYX, INC., priority 2019, dated 2022)

Biological target: human PD-L1 (Homo sapiens (Human), UniProt Q9NZQ7)
Experiment: Enzyme-Linked Immunosorbent Assay (ELISA), PD-1/PD-L1 binding
Conditions: PD-1/PD-L1 ELISA, human PD-L1 coated plates, Table 1
How it was run: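 Competitive ELISA: human PD-1 […] (0.31 μg/mL) and serially diluted compounds (1:5) incubated 1 h at 37° C on wells coated with […] human PD-L1. Signal via streptavidin-HRP/TMB, stopped with 2 N H2SO4, measured as A450.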

Chain of human PD-L1 (Q9NZQ7 19-239): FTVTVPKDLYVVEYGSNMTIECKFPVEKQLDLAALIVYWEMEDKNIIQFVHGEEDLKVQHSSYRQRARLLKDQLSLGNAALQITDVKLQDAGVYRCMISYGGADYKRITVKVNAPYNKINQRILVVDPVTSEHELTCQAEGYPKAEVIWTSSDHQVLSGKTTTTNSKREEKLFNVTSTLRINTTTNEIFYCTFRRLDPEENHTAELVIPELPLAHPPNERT

Row | SMILES | IC50 [nM]
1 | COc1cc(-c2cccc(-c3cccc(NC(=O)c4ccccn4)c3C)c2Cl)cc(F)c1CN1CC(C(=O)O)C1 [Example 1.365] | < 10
2 | COc1cc(-c2cccc(-c3cccc(NC(=O)c4ccccn4)c3C)c2C)cc(F)c1CN1CC[C@@H](C(=O)O)C1 [Example 1.366] | < 10
3 | COc1cc(-c2cccc(-c3cccc(NC(=O)c4ccncn4)c3C)c2C)cc(F)c1CN1CC(C(=O)O)C1 [Example 1.367] | < 10
4 | COc1cc(-c2cccc(-c3cccc(NC(=O)c4ccccn4)c3C)c2C)cc(F)c1CN1CC[C@H](C(=O)O)C1 [Example 1.368] | 10 to 1000
5 | COc1cc(-c2cccc(-c3cccc(NC(=O)c4ccc(Cl)cn4)c3C)c2C)cc(F)c1CN1CC(C(=O)O)C1 [Example 1.369] | 10 to 1000
6 | COc1cc(-c2cccc(-c3cccc(NC(=O)c4ccccn4)c3F)c2C)cc(F)c1CN1CC(C(=O)O)C1 [Example 1.370] | 10 to 1000
7 | COc1cc(-c2cccc(-c3cccc(NC(=O)c4ccc(C)cn4)c3C)c2C)cc(F)c1CN1CC(C(=O)O)C1 [Example 1.371] | < 10
8 | COc1cc(-c2cccc(-c3cccc(NC(=O)c4ccccn4)c3C)c2C)cc(F)c1CN1CCOC[C@@H]1CO [Example 1.372] | 10 to 1000
9 | COc1cc(-c2cccc(-c3cccc(NC(=O)c4ccccn4)c3C)c2C)cc(F)c1CN1CCOC[C@H]1CO [Example 1.373] | 10 to 1000
10 | COc1cc(-c2cccc(-c3cccc(NC(=O)c4ccccn4)c3)c2C)cc(F)c1CN1CC(C(=O)O)C1 [Example 1.375] | 10 to 1000
11 | COc1cc(-c2cccc(-c3cccc(NC(=O)c4ccccn4)c3C)c2C)cc(F)c1CNC(CO)CO [Example 1.376] | 10 to 1000
12 | COc1cc(-c2cccc(-c3cccc(NC(=O)c4ccccn4)c3C)c2C)cc(F)c1CN1CCCC[C@@H]1C(=O)O [Example 1.377] | 1000 to 10000
13 | COc1cc(-c2cccc(-c3cccc(NC(=O)c4ccccn4)c3C)c2C)cc(F)c1CNC(CO)(CO)CO [Example 1.379] | < 10
14 | COc1cc(-c2cccc(-c3cccc(NC(=O)c4ccccn4)c3C)c2C)cc(F)c1CN1CCCC[C@H]1C(=O)O [Example 1.380] | 10 to 1000
15 | COc1cc(-c2cccc(-c3cccc(NC(=O)c4ccccn4)c3C)c2C)cc(F)c1CN1CC(C(=O)O)C1 [Example 1.381] | < 10
16 | COc1cc(-c2cccc(-c3cccc(NC(=O)c4ccccn4)c3C)c2C)cc(F)c1CNCC(=O)O [Example 1.385] | 10 to 1000
17 | COc1cc(-c2cccc(-c3cccc(NC(=O)c4cccc(N)n4)c3C)c2C)cc(F)c1CN [Example 1.386] | 10 to 1000
18 | COc1cc(-c2cccc(-c3cccc(NC(=O)c4ccccn4)c3C)c2C)cc(F)c1CN1CC(O)C1 [Example 1.388] | < 10
19 | COc1cc(-c2cccc(-c3cccc(NC(=O)c4ccnc(N)c4)c3C)c2C)cc(F)c1CNCCO [Example 1.389] | 1000 to 10000
20 | COc1cc(-c2cccc(-c3cccc(NC(=O)c4ccc(N)nc4)c3C)c2C)cc(F)c1CNCCO [Example 1.390] | 1000 to 10000
21 | COc1cc(-c2cccc(-c3cccc(NC(=O)N4CCNCC4)c3C)c2C)cc(F)c1CN [Example 1.392] | 10 to 1000
22 | COc1cc(-c2cccc(-c3cccc(NC(=O)C4CCN(CCO)CC4)c3C)c2C)cc(F)c1CN [Example 1.393] | 10 to 1000
23 | COc1cc(-c2cccc(-c3cccc(NC(=O)C4CCCNC4)c3C)c2C)cc(F)c1CN (stereo not shown) [Example 1.394] | 1000 to 10000
24 | COc1cc(-c2cccc(-c3cccc(NC(=O)C4CCN(CCO)CC4)c3C)c2C)cc(F)c1CNCCO [Example 1.395] | 10 to 1000
25 | COc1cc(-c2cccc(-c3cccc(NC(=O)c4ccccn4)c3C)c2C)cc(F)c1CNCCO [Example 1.396] | < 10
26 | COc1cc(-c2cccc(-c3cccc(NC(=O)C4CCNCC4)c3C)c2C)cc(F)c1CNCCO [Example 1.397] | 10 to 1000

Same assay, conditions: human PD-1/PD-L1 ELISA, plates coated with human PD-L1

Row | SMILES | IC50 [nM]
27 | CNCc1c(F)cc(-c2cccc(-c3cccc(NC(=O)c4nc5c(s4)CN(CCO)CC5)c3F)c2C)cc1OC [Example 1.398] | < 10
28 | COc1cc(-c2cccc(-c3cccc(NC(=O)c4ccc(CNCCO)cn4)c3C)c2C)cc(F)c1CNCCS(=O)(=O)O [Example 1.399] | < 10
29 | COc1cc(-c2cccc(-c3cccc(NC(=O)c4nc5c(s4)CN(CCO)CC5)c3F)c2C)cc(F)c1CNCCO [Example 1.400] | < 10
30 | COc1cc(-c2cccc(-c3cccc(NC(=O)c4ccc(CNCCO)cn4)c3C)c2C)cc(F)c1CNCCCC(=O)O [Example 1.401] | < 10
31 | COc1cc(-c2cccc(-c3cccc(NC(=O)c4ccc(CN[C@@](C)(CO)C(=O)O)cn4)c3C)c2C)cc(F)c1CN[C@@](C)(CO)C(=O)O [Example 1.402] | < 10
32 | COc1cc(-c2cccc(-c3cccc(NC(=O)c4nc5c(s4)CNCC5)c3F)c2C)cc(F)c1CNCCCC(=O)O [Example 1.403] | < 10
33 | COc1cc(-c2cccc(-c3cccc(NC(=O)c4ccc(CNCCO)cn4)c3C)c2C)cc(F)c1CNCCO [Example 1.404] | < 10

Same assay, conditions: plate-coated human PD-L1, biotinylated Human PD-1, absorbance at 450 nm

Row | SMILES | IC50 [nM]
34 | COc1c(CNC[C@@H]2CCC(=O)N2)ccc(-c2cccc(-c3cccc(NC(=O)c4cn(C)c(=O)n(C)c4=O)c3Cl)c2Cl)c1F [Example 2.001] | < 10
35 | COc1cc(-c2cccc(-c3cccc(NC(=O)c4cn(C)c(=O)n(C)c4=O)c3Cl)c2Cl)cc(F)c1CN1CC2(CCNC2=O)C1 [Example 2.002] | < 10
36 | COc1cc(-c2cccc(-c3cccc(NC(=O)c4cn(C)c(=O)n(C)c4=O)c3Cl)c2Cl)cc(F)c1CN1CCC[C@@H](C(=O)O)C1 [Example 2.003] | < 10
37 | COc1cc(-c2cccc(-c3cccc(NC(=O)c4cn(C)c(=O)n(C)c4=O)c3Cl)c2Cl)cc(F)c1CN1CCC(C(=O)O)CC1 [Example 2.004] | < 10
38 | COc1cc(-c2cccc(-c3cccc(NC(=O)c4cn(C)c(=O)n(C)c4=O)c3Cl)c2Cl)cc(F)c1CN1CCC(C)(C(=O)O)CC1 [Example 2.005] | < 10
39 | COc1cc(-c2cccc(-c3cccc(NC(=O)c4cn(C)c(=O)n(C)c4=O)c3C)c2Cl)cc(F)c1CN1CCC2(CCNC2=O)CC1 [Example 2.006] | 10 to 1000
40 | COc1cc(-c2cccc(-c3cccc(NC(=O)c4cn(C)c(=O)n(C)c4=O)c3C)c2Cl)cc(F)c1CN1CCC2(CCNC2=O)C1 (stereo not shown) [Example 2.007] | < 10
41 | COc1cc(-c2cccc(-c3cccc(NC(=O)c4cn(C)c(=O)n(C)c4=O)c3Cl)c2Cl)cc(F)c1CN1CC(C)(C(=O)O)C1 [Example 2.008] | < 10
42 | COc1cc(-c2cccc(-c3cccc(NC(=O)c4cn(C)c(=O)n(C)c4=O)c3Cl)c2Cl)cc(F)c1CN1CCC(C)(O)CC1 [Example 2.009] | < 10
43 | COc1cc(-c2cccc(-c3cccc(NC(=O)c4cn(C)c(=O)n(C)c4=O)c3Cl)c2Cl)cc(F)c1CN1CC[C@@H](C(=O)O)C1 [Example 2.010] | < 10
44 | COc1cc(-c2cccc(-c3cccc(NC(=O)c4cn(C)c(=O)n(C)c4=O)c3C)c2C)cc(F)c1CN1CC2(CCNC2=O)C1 [Example 2.011] | < 10
45 | COc1cc(-c2cccc(-c3cccc(NC(=O)c4cn(C)c(=O)n(C)c4=O)c3C)c2Cl)cc(F)c1CN1CC2(CCNC2=O)C1 [Example 2.012] | < 10
46 | COc1cc(-c2cccc(-c3cccc(NC(=O)c4cn(C)c(=O)n(C)c4=O)c3C)c2Cl)cc(F)c1CN1CCC(C)(C(=O)O)CC1 [Example 2.013] | < 10
47 | COc1cc(-c2cccc(-c3cccc(NC(=O)c4cn(C)c(=O)n(C)c4=O)c3C)c2C)cc(F)c1CN1CC(C(=O)O)C1 [Example 2.014] | < 10
48 | COc1cc(-c2cccc(-c3cccc(NC(=O)c4cn(C)c(=O)n(C)c4=O)c3C)c2Cl)cc(F)c1CN1CCC[C@@H](C(=O)O)C1 [Example 2.015] | < 10
49 | COc1cc(-c2cccc(-c3cccc(NC(=O)c4cn(C)c(=O)n(C)c4=O)c3C)c2Cl)cc(F)c1CN1CC[C@@H](O)C1 [Example 2.016] | < 10
50 | COc1cc(-c2cccc(-c3cccc(NC(=O)c4cn(C)c(=O)n(C)c4=O)c3C)c2Cl)cc(F)c1CN1CC(C)(C(=O)O)C1 [Example 2.017] | < 10
51 | COc1cc(-c2cccc(-c3cccc(NC(=O)c4cn(C)c(=O)n(C)c4=O)c3C)c2Cl)cc(F)c1CN1CCC(C)(O)CC1 [Example 2.018] | < 10
52 | COc1cc(-c2cccc(-c3cccc(NC(=O)c4cn(C)c(=O)n(C)c4=O)c3C)c2Cl)cc(F)c1CN1CCC(C(=O)O)CC1 [Example 2.019] | < 10
53 | COc1cc(-c2cccc(-c3cccc(NC(=O)c4cn(C)c(=O)n(C)c4=O)c3C)c2Cl)cc(F)c1CN1CCC(O)CC1 [Example 2.020] | < 10
54 | COc1cc(-c2cccc(-c3cccc(NC(=O)c4cn(C)c(=O)n(C)c4=O)c3C)c2Cl)cc(F)c1CN1CC[C@@H](C(=O)O)C1 [Example 2.021] | < 10
55 | COc1cc(-c2cccc(-c3cccc(NC(=O)c4c[nH]c(=O)n(C)c4=O)c3Cl)c2Cl)cc(F)c1CN[C@H]1CCOC[C@H]1OC [Example 2.022] | < 10
56 | COc1cc(-c2cccc(-c3cccc(NC(=O)c4c[nH]c(=O)n(C)c4=O)c3C)c2Cl)cc(F)c1CN[C@H]1CCOC[C@H]1OC [Example 2.023] | < 10
57 | COc1cc(-c2cccc(-c3cccc(NC(=O)c4cn(C)c(=O)n(C)c4=O)c3C)c2Cl)cc(F)c1CN[C@H]1CCOC[C@H]1OC [Example 2.024] | < 10
58 | COc1cc(-c2cccc(-c3cccc(NC(=O)c4cn(C)c(=O)n(C)c4=O)c3Cl)c2Cl)cc(F)c1CN[C@H]1CCOC[C@H]1OC [Example 2.025] | < 10
59 | COc1cc(-c2cccc(-c3cccc(NC(=O)c4c[nH]c(=O)n(C)c4=O)c3Cl)c2Cl)cc(F)c1CNCC1(C(N)=O)CC1 [Example 2.026] | < 10
60 | COc1cc(-c2cccc(-c3cccc(NC(=O)c4c[nH]c(=O)n(C)c4=O)c3Cl)c2Cl)cc(F)c1CN[C@H]1CCC(=O)NC1 [Example 2.027] | < 10
61 | COc1cc(-c2cccc(-c3cccc(NC(=O)c4c[nH]c(=O)n(C)c4=O)c3Cl)c2Cl)cc(F)c1CN[C@H]1CCOC[C@H]1O [Example 2.029] | < 10
